Laboratory results taken from US10828316B2, “Method of treating bacterial infections” (priority 2016, dated 2020).
≈ marks a conversion by molar mass, not a printed value.

How the values were obtained:
[1] = test system: K. pneumoniae EN0262; conditions: commercial antibiotics, data provided by IMBIM, BMC, Uppsala University; cited from earlier work
[2] = test system: S. aureus strain no 13; assay: MIC; conditions: S. aureus strain 13, trimethoprim 2 μg/ml
[3] = test system: S. flexneri APV00907; assay: MIC; assay type: cell-based; conditions: S. flexneri APV00907; for MIC: Shigella flexneri, read-out: Antibiogram MIC
[4] = test system: S. flexneri APV00906; assay: MIC; assay type: cell-based; conditions: S. flexneri APV00906; for MIC: Shigella flexneri, read-out: Antibiogram MIC
[5] = test system: S. sonnei APV00908; assay: MIC; assay type: cell-based; conditions: S. sonnei APV00908; for MIC: Shigella sonnei, read-out: Antibiogram MIC
[6] = test system: E. coli; conditions: Ciprofloxacin 14 mg/kg; single mice

Row | Molecule | MIC [1] [µg/mL] | MIC [3] [µg/mL] | MIC [4] [µg/mL] | MIC [5] [µg/mL] | other results
1 | CCN1CCN(C(=O)N[C@@H](C(=O)N[C@@H]2C(=O)N3[C@@H]2SC(C)(C)[C@@H]3C(=O)O)c2ccccc2)C(=O)C1=O [piperacillin] | >256 | – | – | – | –
2 | O=c1[nH]c(=O)n([C@H]2C[C@H](O)[C@@H](CO)O2)cc1Br [BrdUrd] | – | – | – | – | MIC BrdUrd ([2]; uridine 10 μg/ml): ≤2 µg/mL; MIC BrdUrd ([2]; uridine 100 μg/ml): ≤2 µg/mL
3 | C[C@@H](O)[C@H]1C(=O)N2C(C(=O)O)=C(SCCN=CN)C[C@H]12 [imipenem] | – | ≤ 0.25 | ≤ 0.25 | ≤ 0.25 | –
4 | CC1(C)S[C@@H]2[C@H](NC(=O)[C@H](N)c3ccccc3)C(=O)N2[C@H]1C(=O)O [ampicillin] | >128 | – | – | – | –
5 | colistin | 1 | – | – | – | –
6 | gentamicin | 1 | – | – | – | Antibiogram MIC [3]: ≤ 1 µg/mL; Antibiogram category (S, I, R, R*) [3]: R*; Antibiogram MIC [4]: 4 µg/mL; Antibiogram category (S, I, R, R*) [4]: R*; Antibiogram MIC [5]: ≤ 1 µg/mL; Antibiogram category (S, I, R, R*) [5]: R*
7 | C[C@@H](O)[C@H]1C(=O)N2C(C(=O)O)=C(S[C@@H]3CN[C@H](C(=O)Nc4cccc(C(=O)O)c4)C3)[C@H](C)[C@H]12 [Ertapenem] | – | ≤ 0.5 | ≤ 0.5 | ≤ 0.5 | –
8 | O=C(O)c1cn(C2CC2)c2cc(N3CCNCC3)c(F)cc2c1=O [ciprofloxacin] | >2 | ≤ 0.5 | ≤ 0.25 | ≤ 0.5 | score at sampling [6]: 0
9 | perfloxacin | >16 | – | – | – | –
10 | CN(C)c1cc(NC(=O)CNC(C)(C)C)c(O)c2c1C[C@H]1C[C@H]3[C@H](N(C)C)C(O)=C(C(N)=O)C(=O)[C@@]3(O)C(O)=C1C2=O [tigecycline] | 2 (≈ 3.41 µM) | ≤ 0.5 | ≤ 0.5 | ≤ 0.5 | –
